Data from US7973047B2, “Beta-Secretase modulators and methods of use” (Amgen Inc., priority 2010, dated 2011).
Read-outs that look alike come from different tables or passages of the source.

Tested on: Aβ40 in conditioned medium of cells stably expressing Amyloid Precursor Protein (APP)
Assay: BACE cell-based assay: Aβ40 in conditioned medium by sandwich ELISA
Details: read-out: Cell Assay
Protocol: The cell-based assay measures inhibition or reduction of Aβ40 in conditioned medium of test compound treated cells expressing amyloid precursor protein.
Cells stably expressing Amyloid Precursor Protein (APP) were plated at a density of 40K cells/well in 96 well plates (Costar). The cells were cultivated for 24 hours at 37° C. and 5% CO2 in DMEM supplemented with 10% FBS. The test compounds were then added to cells in 10-point dose response concentrations with the starting concentration being either 100 μM or 10 μM. The compounds were diluted from stock solutions in DMSO and the final DMSO concentration of the test compounds on cells was 0.1%. After 24 h of incubation with the test compounds the supernatant conditioned media was collected and the Aβ40 levels were determined using a sandwich ELISA. The ICso of the compound was calculated from the percent of control or percent inhibition of Aβ40 as a function of the concentration of the test compound.
The sandwich ELISA to detect Aβ40 was performed in 96 well microtiter plates, which were pre-treated with goat anti-rabbit IgG (Pierce). The capture and detecting antibody pair that were used to detect Aβ40 from cell supernatants were affinity purified pAb40 (Biosource) and biotinylated 6E10 (Signet Labs Inc.), respectively. The optimal concentration for the pAb40 antibody was 3 μg/ml in Superblock/TBS (Pierce) that was supplemented with 0.05% Tween 20 (Sigma).
Cellular supernatants were incubated with the capture antibody for 3 h at 4° C., followed by 3 wash steps in TBS-tween (0.05%). The detecting antibody incubation was for 2 h at 4° C., again followed by the wash steps as described previously. The final readout of the ELISA is Time-Resolved Fluorescence (counts per minute) using Delfia reagents Streptavidin-Europium and Enhancement solutions (Perkin Elmer) and the Victor 2 multilabel counter (Perkin Elmer).

[1] = cell based assay data of Table 4, unit inferred

| Compound | IC50 [1] | IC50 |
| --- | --- | --- |
| CC(=O)N[C@@H](Cc1cccc(F)c1)[C@H](O)CN[C@H]1CC2(CCC2)Oc2c1cc(CC(C)(C)C)nc2NC1CCOCC1 [compound 592] | 0.00324 µM |  |
| CC(=O)N[C@@H](Cc1cccc(F)c1)[C@H](O)CN[C@H]1CC2(CCC2)Oc2c1cc(CC(C)(C)C)nc2N(C)C [compound 593] | 0.0236 µM |  |
| CC(=O)N[C@@H](Cc1cccc(F)c1)[C@H](O)CN[C@H]1CC2(CCC2)Oc2c1cc(CC(C)(C)C)[nH]c2=O [compound 594] | 0.0234 µM |  |
| CC(=O)N[C@@H](Cc1cc(F)cc(F)c1)[C@H](O)CN[C@H]1CC2(CCC2)Oc2c1cc(CC(C)(C)C)nc2N(C)C [compound 598] | 0.0268 µM |  |
| CC(=O)N[C@@H](Cc1ccc(N(C)C)cc1)[C@H](O)CN[C@H]1CC2(CCC2)Oc2c1cc(CC(C)(C)C)nc2N(C)C [compound 599] | 0.167 µM |  |
| CC(=O)N[C@@H](Cc1ccc(Cl)cc1)[C@H](O)CN[C@H]1CC2(CCC2)Oc2c1cc(CC(C)(C)C)nc2N(C)C [compound 600] | 0.634 µM |  |
| CC(=O)N[C@@H](Cc1cccc(F)c1F)[C@H](O)CN[C@H]1CC2(CCC2)Oc2c1cc(CC(C)(C)C)nc2N(C)C [compound 601] | 0.227 µM |  |
| CC(=O)N[C@@H](Cc1cccc(F)c1)[C@H](O)CN[C@H]1CC2(CCC2)Oc2c1cc(CC(C)(C)C)nc2NC1CC1 [compound 602] | 0.00289 µM |  |
| CC(=O)N[C@@H](Cc1cccc(F)c1)[C@H](O)CN[C@H]1CC2(CCC2)Oc2c1cc(CC(C)(C)C)nc2NCCNC(=O)OC(C)(C)C [compound 603] | 0.0129 µM |  |
| COC1CN(c2nc(CC(C)(C)C)cc3c2OC2(CCC2)C[C@@H]3NC[C@@H](O)[C@H](Cc2cccc(F)c2)NC(C)=O)C1 [compound 604] | 0.00579 µM |  |
| CC(=O)N[C@@H](Cc1cccc(F)c1)[C@H](O)CN[C@H]1CC2(CCC2)Oc2c1cc(CC(C)(C)C)nc2N [compound 605] | 0.00156 µM |  |
| CC(=O)N[C@@H](Cc1cccc(F)c1)[C@H](O)CN[C@H]1CC2(CCC2)Oc2c1cc(CC(C)(C)C)nc2NCCN [compound 606] | 0.00443 µM |  |
| CC(=O)N[C@@H](Cc1ccc(F)cc1)[C@H](O)CN[C@@H]1CC2(CCC2)Oc2c1cc(CC(C)(C)C)nc2OC(C)C [compound 607] | 0.0803 µM |  |
| CC(=O)N[C@@H](Cc1ccc(F)cc1)[C@H](O)CN[C@H]1CC2(CCC2)Oc2c1cc(CC(C)(C)C)nc2OC(C)C [compound 608, N-((1S,2R)-3-(((4′S)-6′-(2,2-dimethylpropyl)-8′-((1-methylethyl)oxy)-3′,4′-dihydrospiro[cyclobutane-1,2′-pyrano[2,3-c]pyridin]-4′-yl)amino)-1-((4-fluorophenyl)methyl)-2-hydroxypropyl)acetamide] | 0.0643 µM |  |
| CC(=O)N[C@@H](Cc1cccc(F)c1)[C@H](O)CN[C@@H]1CC2(CCC2)Oc2c1cc(CC(C)(C)C)nc2OC(C)C [compound 609] | 0.0667 µM |  |
| CC(=O)N[C@@H](Cc1cc(F)cc(F)c1)[C@H](O)CN[C@@H]1CC2(CCC2)Oc2c1cc(CC(C)(C)C)nc2OC(C)C [compound 611] | 0.161 µM |  |
| CC(=O)N[C@@H](Cc1cc(F)cc(F)c1)[C@H](O)CN[C@H]1CC2(CCC2)Oc2c1cc(CC(C)(C)C)nc2OC(C)C [compound 612, N-((1S,2R)-1-((3,5-difluorophenyl)methyl)-3-(((4′S)-6′-(2,2-dimethylpropyl)-8′-((1-methylethyl)oxy)-3′,4′-dihydrospiro[cyclobutane-1,2′-pyrano[2,3-c]pyridin]-4′-yl)amino)-2-hydroxypropyl)acetamide] | 0.0242 µM |  |

| Compound | IC50 [1] | IC50 |
| --- | --- | --- |
| COc1nc(CC(C)(C)C)cc2c1OC1(CCC1)C[C@@H]2NC[C@@H](O)[C@H](Cc1ccc(F)cc1)NC(C)=O [compound 613] | 0.103 µM |  |
| COC1CN(c2nc(CC(C)(C)C)cc3c2OC2(CCC2)C[C@@H]3NC[C@@H](O)[C@H](Cc2ccc(F)cc2)NC(C)=O)C1 [compound 614] | 0.059 µM |  |
| CC(=O)N[C@@H](Cc1ccc(F)cc1)[C@H](O)CN[C@H]1C[C@]2(C[C@H](C)C2)Oc2ncc(CC(C)C)cc21 [compound 615, N-((1S,2R)-1-((4-fluorophenyl)methyl)-2-hydroxy-3-(((1s,3R,4′S)-3-methyl-6′-(2-methylpropyl)-3′,4′-dihydrospiro[cyclobutane-1,2′-pyrano[2,3-b]pyridin]-4′-yl)amino)propyl)acetamide] | 0.0248 µM |  |
| CC(=O)N[C@@H](Cc1ccc(F)cc1)[C@H](O)CN[C@H]1C[C@]2(C[C@@H](C)C2)Oc2ncc(CC(C)C)cc21 [compound 616, N-((1S,2R)-1-((4-fluorophenyl)methyl)-2-hydroxy-3-(((1r,3S,4′S)-3-methyl-6′-(2-methylpropyl)-3′,4′-dihydrospiro[cyclobutane-1,2′-pyrano[2,3-b]pyridin]-4′-yl)amino)propyl)acetamide] | 0.0627 µM |  |
| CC(=O)N[C@@H](Cc1cccc(F)c1)[C@H](O)CN[C@H]1C[C@]2(C[C@H](C)C2)Oc2ncc(CC(C)C)cc21 [compound 617, N-((1S,2R)-1-((3-fluorophenyl)methyl)-2-hydroxy-3-(((1s,3R,4′S)-3-methyl-6′-(2-methylpropyl)-3′,4′-dihydrospiro[cyclobutane-1,2′-pyrano[2,3-b]pyridin]-4′-yl)amino)propyl)acetamide] | 0.00298 µM |  |
| CC(=O)N[C@@H](Cc1ccc(Cl)cc1)[C@H](O)CN[C@H]1C[C@]2(C[C@H](C)C2)Oc2ncc(CC(C)C)cc21 [compound 618, N-((1S,2R)-1-((4-chlorophenyl)methyl)-2-hydroxy-3-(((1s,3R,4′S)-3-methyl-6′-(2-methylpropyl)-3′,4′-dihydrospiro[cyclobutane-1,2′-pyrano[2,3-b]pyridin]-4′-yl)amino)propyl)acetamide] | 0.0722 µM |  |
| CC(=O)N[C@@H](Cc1ccc(F)cc1)[C@H](O)CN[C@H]1C[C@]2(CC[C@@H]2C)Oc2ncc(CC(C)(C)C)cc21 [compound 619] | 0.0326 µM |  |
| CC(=O)N[C@@H](Cc1ccc(Cl)cc1)[C@H](O)CN[C@H]1C[C@]2(CC[C@@H]2C)Oc2ncc(CC(C)(C)C)cc21 [compound 620] | 0.062 µM |  |
| CC(=O)N[C@@H](Cc1ccc(F)cc1)[C@H](O)CN[C@H]1C[C@@]2(CC[C@H]2C)Oc2ncc(CC(C)(C)C)cc21 [compound 621] | ≥ 10 µM |  |
| CC(=O)N[C@@H](Cc1ccc(Cl)cc1)[C@H](O)CN[C@H]1C[C@@]2(CC[C@H]2C)Oc2ncc(CC(C)(C)C)cc21 [compound 622] | ≥ 10 µM |  |
| CC(=O)N[C@@H](Cc1ccc(F)cc1)[C@H](O)CN[C@H]1C[C@]2(CC[C@H]2C)Oc2ncc(CC(C)(C)C)cc21 [compound 623] | 0.0382 µM |  |
| CC(=O)N[C@@H](Cc1ccc(Cl)cc1)[C@H](O)CN[C@H]1C[C@]2(CC[C@H]2C)Oc2ncc(CC(C)(C)C)cc21 [compound 624] | 0.0615 µM |  |
| CC(=O)N[C@@H](Cc1ccc(F)cc1)[C@H](O)CN[C@H]1C[C@@]2(CC[C@@H]2C)Oc2ncc(CC(C)(C)C)cc21 [compound 625] | ≥ 10 µM |  |
| CC(=O)N[C@@H](Cc1ccc(Cl)cc1)[C@H](O)CN[C@H]1C[C@@]2(CC[C@@H]2C)Oc2ncc(CC(C)(C)C)cc21 [compound 626] | ≥ 10 µM |  |
| COC(=O)N[C@@H](Cc1ccc(Cl)cc1)[C@H](O)CN[C@H]1CC2(CCC2)Oc2ncc(CC(C)(C)C)cc21 [compound 627] | 0.936 µM |  |
| COCC(=O)N[C@@H](Cc1ccc(F)cc1)[C@H](O)CN[C@H]1CC2(CCC2)Oc2ncc(CC(C)(C)C)cc21 [compound 628] | 0.0105 µM |  |
| CC(C)(C)Cc1cnc2c(c1)[C@@H](NC[C@@H](O)[C@H](Cc1ccc(F)cc1)NC(=O)CF)CC1(CCC1)O2 [compound 629] |  | 0.0126 µM |
